Assay results from patent US6924278B2, “Aroyl-piperazine derivatives, their preparation and their use as tachykinin antagonists” (Fujisawa Pharmaceutical Co., Ltd., priority 1997, dated 2005).
Counter-ions that a name gives are not always drawn.

Biological target: T1, h-NK1 receptors (Homo sapiens, UniProt P25103)
T1 construct: expressed in transfected cells; host or cells: CHO cells (permanent expression), crude cell membranes
Assay: Evaluation of NK1 antagonist transport efficiency to the central nervous system using a h-NK1 receptor binding assay (brain extract after i.v. dosing of rats)
Settings: 5 min; compound extracted from brain of male SD rats 5 min after i.v. injection at the dose of 1 mg/kg; CHO cell membranes expressing h-NK1; read-out: inhibition rate of 125I-BH-Substance P binding to h-NK1 receptors
Procedure: A. Evaluation of NK1 Antagonist Transport Efficiency to the Cental Nervous System using a h-NK1 Receptor Binding Assay
(1) Administration of Test Compound and Extraction of the Compound from Brain
Male SD rats were given an i.v. injection of a solution containing a test compound (1 mg/kg). 5 Min later the animals were anesthetized by ether, bled and perfused through the aorta ascendens with 20 ml of saline. The brain was rapidly removed, weighed and homogenized in 4 vol. ice-cold distilled water by using Polytoron (KINEMATICA). To extract the test compound, 500 μl of the homogenate, 100 μl of methanol, 500 μl of 0.1 N NaOH and 4 ml of ethyl acetate were mixed by shaking for 10 min at room temperature. The organic phase (2.5 ml) was recovered by centrifugation at 3,000 rpm for 10 min, dried and dissolved in dimethyl sulfoxide.
(2) h-NK1 Receptor Binding Assay
(a) Crude CHO Cell Membrane Preparation
CHO cells permanently expressing h-NK1 receptors were harvested and homogenized with a Dounce homogenizer at 4° C. in a buffer (0.25 M sucrose, 25 mM Tris-HCl (pH 7.4), 10 mM MgCl2, 1 mM EDTA, 5 μg/ml p-APMSF). The homogenate was centrifuged (500×g, 10 min), and the pellet was resuspended in the same buffer, homogenized, and centrifuged. The two supernatants were combined and centrifuged (100,000×g, 1 hour). The crude cell membranes thus isolated were resuspended in a buffer (25 mM Tris-HCl (pH 7.4), 10 mM MgCl2, 1 mM. EDTA, 5 μg/ml p-APMSF) and stored at −80° C. until use.
(b) ^125I-BH-Substance P Binding to the Prepared Membrane
Cell membranes (6 μg/ml) were incubated with ^125I-BH-Substance P (0.1 nM) with or without the extracted compounds in 0.25 ml of a medium (50 mM Tris-HCl (pH 7.4), 5 mM MnCl2, 20 μg/ml chymostatin, 40 μg/ml bacitracin, 4 μg/ml leupeptin, 5 μg/ml p-APMSF, 200 μg/ml BSA) at 22° C. for 90 min. At the end of the incubation period, the contents were quickly filtered through a Blue Mat 11740 filter (pretreated with 0.1% polyethylenimine for 3 hours prior to use) by using SKATRON Cell Harvester. The filter was then washed with a washing buffer (50 mM Tris-HCl (pH 7.4), 5 mM MnCl2). The radioactivity was counted by using an auto gamma counter (Packard RIASTAR 5420A). All data presented are specific binding defined as that displaceable by 3 μM unlabeled Substance P.

T1 sequence (P25103 whole entry): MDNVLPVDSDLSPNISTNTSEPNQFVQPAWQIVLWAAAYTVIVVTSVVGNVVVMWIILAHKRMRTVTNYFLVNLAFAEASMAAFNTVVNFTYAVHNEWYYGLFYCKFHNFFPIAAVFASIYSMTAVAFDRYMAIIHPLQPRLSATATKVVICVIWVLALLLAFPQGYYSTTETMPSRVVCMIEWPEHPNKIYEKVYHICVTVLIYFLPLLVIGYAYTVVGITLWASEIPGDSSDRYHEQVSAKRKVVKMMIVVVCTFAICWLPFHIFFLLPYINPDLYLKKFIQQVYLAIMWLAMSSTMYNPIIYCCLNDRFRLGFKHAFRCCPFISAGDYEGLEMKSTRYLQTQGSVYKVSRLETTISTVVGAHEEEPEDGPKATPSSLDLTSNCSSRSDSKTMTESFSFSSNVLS

inhibition at 1 mg/kg | SMILES
> 80% | CC[C@@H]1COCCN1CCN1CCN(C(=O)c2cc(C(F)(F)F)cc(C(F)(F)F)c2)[C@H](Cc2ccc(C)c(C)c2)C1 [80-(1), (2R)-1-[3,5-Bis(trifluoromethyl)benzoyl]-2-(3,4-dimethylbenzyl)-4-[2-((3R)-3-ethylmorpholino)ethyl]piperazine dihydrochloride]
> 80% | Cc1ccc(C[C@@H]2CN(CC#CCN3CCOCC(F)C3)CCN2C(=O)c2cc(C(F)(F)F)cc(C(F)(F)F)c2)cc1C (stereo partly drawn) [70-(2), (2R)-1-[3,5-Bis(trifluoromethyl)benzoyl]-2-(3,4-dimethylbenzyl)-4-[4-(tetrahydro-6-fluoro-1,4-oxazepin-4(5H)-yl)-2-butynyl]piperazine dihydrochloride]
> 80% | COC[C@H]1COCCN1CCCCN1CCN(C(=O)c2cc(C(F)(F)F)cc(C(F)(F)F)c2)[C@H](Cc2ccc(C)c(C)c2)C1 [Example 82, (2R)-1-[3,5-bis(trifluoromethyl)benzoyl]-2-(3,4-dimethylbenzyl)-4-[4-((3S)-3-methoxymethylmorpholino)butyl]piperazine dihydrochloride]
> 80% | O=C(c1cc(C(F)(F)F)cc(C(F)(F)F)c1)N1CCN(CC#Cc2cccnc2)C[C@H]1Cc1c[nH]c2ccccc12 [Example 1-(1), (2R)-1-[3,5-bis(trifluoromethyl)benzoyl]-2-[(1H-indol-3-yl)methyl]-4-[3-(3-pyridyl)-2-propynyl]piperazine]
> 80% | O=C(c1cc(C(F)(F)F)cc(C(F)(F)F)c1)N1CCN(CC#CCNCc2cccnc2)C[C@H]1Cc1ccc2ccccc2c1 [Example 30, (2R)-1-[3,5-bis(trifluoromethyl)benzoyl]-4-[4-(3-pyridylmethylamino)-2-butynyl]-2-(2-naphthylmethyl)piperazine trihydrochloride]
> 80% | Cc1ccc(C[C@@H]2CN(CC#CCN3CCOCC3(C)C)CCN2C(=O)c2cc(N(C)C)cc(C(F)(F)F)c2)cc1C [90-(5), (2R)-1-[3-(Dimethylamino)-5-(trifluoromethyl)benzoyl]-2-(3,4-dimethylbenzyl)-4-[4-(3,3-dimethylmorpholino)-2-butynyl]piperazine dihydrochloride]
> 80% | Cc1ccc(C[C@@H]2CN(CCOCCN3CCOCC3)CCN2C(=O)c2cc(C(F)(F)F)cc(C(F)(F)F)c2)cc1C [Example 22, (2R)-1-[3,5-Bis(trifluoromethyl)benzoyl]-2-(3,4-dimethylbenzyl)-4-[2-(2-morpholinoethoxy)ethyl]piperazine dihydrochloride]
> 80% | CC[C@H]1COCCN1CC#CCN1CCN(C(=O)c2cc(C(F)(F)F)cc(C(F)(F)F)c2)[C@H](Cc2ccc(C)c(C)c2)C1 [Example 38, (2R)-1-[3,5-bis(trifluoromethyl)benzoyl]-4-[4-((3S)-3-ethylmorpholino)-2-butynyl]-2-(3,4-dimethylbenzyl)piperazine dihydrochloride]
> 80% | CC[C@@H]1COCCN1CCN1CCN(C(=O)c2cc(C(F)(F)F)cc(C(F)(F)F)c2)[C@H](Cc2c[nH]c3ccccc23)C1 [81-(10), (2R)-1-[3,5-Bis(trifluoromethyl)benzoyl]-4-[2-((3R)-3-ethylmorpholino)ethyl]-2-[(1H-indol-3-yl)methyl]piperazine dihydrochloride]
> 80% | CC1(C)COCCN1CC#CCN1CCN(C(=O)c2cc(C(F)(F)F)cc(C(F)(F)F)c2)C(Cc2ccc3c(c2)OCO3)C1 (centres unmarked) [Example 84, 1-[3,5-bis-(trifluoromethyl)benzoyl]-4-[4-(3,3-dimethylmorpholino)-2-butynyl]-2-(3,4-methylenedioxybenzyl)piperazine dihydrochloride]
> 80% | Cc1ccc(C[C@@H]2CN(CC#CCN3CCOC[C@@H]3CF)CCN2C(=O)c2cc(C(F)(F)F)cc(C(F)(F)F)c2)cc1C [70-(1), (2R)-1-[3,5-Bis(trifluoromethyl)benzoyl]-2-(3,4-dimethylbenzyl)-4-[4-((3R)-3-fluoromethylmorpholino)-2-butynyl]piperazine dihydrochloride]
> 80% | CC[C@H]1COCCN1CC#CCN1CCN(C(=O)c2cc(C(F)(F)F)cc(C(F)(F)F)c2)[C@H](Cc2c[nH]c3ccccc23)C1 [73-(2), (2R)-1-[3,5-Bis(trifluoromethyl)benzoyl]-4-[4-((3S)-3-ethylmorpholino)-2-butynyl]-2-[(1H-indol-3-yl)methyl]piperazine dihydrochloride]

System: not given
Assay: not given
Settings: not given

melting point | SMILES
170 to 174 °C | Cc1ccc(C[C@@H]2CN(C/C=C\c3cccnc3)CCN2C(=O)c2cc(C(F)(F)F)cc(C(F)(F)F)c2)cc1C.Cl.Cl
240 to 250 °C | COC[C@@H]1COCCN1C/C=C/CN1CCN(C(=O)c2cc(C(F)(F)F)cc(C(F)(F)F)c2)[C@H](Cc2ccc(C)c(C)c2)C1.Cl.Cl
195 to 200 °C | COc1ccc(CCCN2CCN(C(=O)c3cc(C(F)(F)F)cc(C(F)(F)F)c3)[C@H](Cc3c[nH]c4ccccc34)C2)cn1.Cl.Cl
140 to 145 °C | Cl.Cl.O=C(c1cc(C(F)(F)F)cc(C(F)(F)F)c1)N1CCN(CCCCc2cccnc2)C[C@H]1Cc1c[nH]c2ccccc12
215 to 230 °C | CNc1cc(C(=O)N2CCN(CC#CCN3CCOCC3(C)C)C[C@H]2Cc2c[nH]c3ccccc23)cc(C(F)(F)F)c1.Cl.Cl
186 °C (dec.) | Cl.Cl.O=C(c1cc(Cl)cc(Cl)c1)N1CCN(CC#CCN2CCOCC2)C[C@H]1Cc1ccc(C(F)(F)F)cc1
138 to 148 °C | Cl.Cl.O=C(c1cc(C(F)(F)F)cc(C(F)(F)F)c1)N1CCN(CCCc2cccnc2)C[C@H]1Cc1ccc2ccccc2c1
128 °C (dec.) | Cc1ccc(C[C@@H]2CN(CC#CCN3CCSCC3)CCN2C(=O)c2cc(Cl)cc(Cl)c2)cc1C.Cl.Cl
125 to 138 °C | Cc1ccc(C[C@@H]2CN(CC#CCN3CCOC[C@@H]3CC(C)C)CCN2C(=O)c2cc(C(F)(F)F)cc(C(F)(F)F)c2)cc1C.Cl.Cl
150 to 160 °C | Cc1ccc(C[C@@H]2CN(CC#CCN3CCOC[C@H]3C(=O)N(C)C)CCN2C(=O)c2cc(C(F)(F)F)cc(C(F)(F)F)c2)cc1C.Cl.Cl
205 to 210 °C | CN(C)c1cccc(CC2CN(CC#CCN3CCOCC3(C)C)CCN2C(=O)c2cc(C(F)(F)F)cc(C(F)(F)F)c2)c1.Cl.Cl.Cl (centres unmarked)
150 to 160 °C | Cl.Cl.O=C(c1cc(C(F)(F)F)cc(C(F)(F)F)c1)N1CCN(CCCc2cccnc2)C[C@H]1Cc1c[nH]c2ccccc12
190 to 195 °C | Cl.Cl.Nc1ccc(C#CCN2CCN(C(=O)c3cc(C(F)(F)F)cc(C(F)(F)F)c3)[C@H](Cc3c[nH]c4ccccc34)C2)cn1
130 to 150 °C | Cc1ccc(C[C@@H]2CN(CC#CCN3CCOC[C@@H]3CO)CCN2C(=O)c2cc(C(F)(F)F)cc(C(F)(F)F)c2)cc1C.Cl.Cl
180 to 190 °C | Cl.Cl.O=C(c1cc(C(F)(F)F)cc(C(F)(F)F)c1)N1CCN(CC#Cc2cccnc2)C[C@H]1Cc1c[nH]c2ccccc12
127 to 137 °C | COc1ccc(CCCN2CCN(C(=O)c3cc(C(F)(F)F)cc(C(F)(F)F)c3)[C@H](Cc3ccc(C)c(C)c3)C2)cn1.Cl.Cl
190 to 195 °C | COC[C@H]1CCCN1CC#CCN1CCN(C(=O)c2cc(C(F)(F)F)cc(C(F)(F)F)c2)[C@H](Cc2c[nH]c3ccccc23)C1.Cl.Cl
165 to 170 °C | COc1ccncc1CCCN1CCN(C(=O)c2cc(C(F)(F)F)cc(C(F)(F)F)c2)[C@H](Cc2c[nH]c3ccccc23)C1.Cl.Cl
170 °C | COc1cccc(CC2CN(CC#CCN3CCOCC3(C)C)CCN2C(=O)c2cc(C(F)(F)F)cc(C(F)(F)F)c2)c1OC.Cl.Cl (centres unmarked)
80 to 100 °C | COC[C@@H]1COCCN1CCCN1CCN(C(=O)c2cc(C(F)(F)F)cc(C(F)(F)F)c2)[C@H](Cc2ccc(C)c(C)c2)C1.Cl.Cl
130 to 150 °C | Cl.Cl.O=C(c1cc(C(F)(F)F)cc(C(F)(F)F)c1)N1CCN(C/C=C\c2cccnc2)C[C@H]1Cc1ccc2ccccc2c1
155 to 160 °C | Cl.Cl.O=C(c1cc(C(F)(F)F)cc(C(F)(F)F)c1)N1CCN(CCCCc2ccccn2)C[C@H]1Cc1c[nH]c2ccccc12
160 to 166 °C | Cl.Cl.O=C(c1cc(C(F)(F)F)cc(C(F)(F)F)c1)N1CCN(CC#Cc2ccccn2)C[C@H]1Cc1c[nH]c2ccccc12
